{"source": "patent US20080145499A1", "about": "“Method for treating fruit or vegetables with phosphorous ions and corresponding compositions” (priority 2006, published 2008)", "key": {"[1]": {"system": "Penicillium digitatum", "assay": "Washington oranges inoculated with Penicillium digitatum, eugenol/potassium phosphite", "type": "in vivo", "protocol": "Washington oranges inoculated with Penicillium digitatum came into contact with a eugenol/potassium phosphite solution containing 1,100 ppm of eugenol and 1,600 ppm of potassium phosphite for 2 minutes at 38° C. and 48° C. The treated fruit was kept at 7° C. and then examined after 9 and 18 days. The fruit was compared with fruit treated with only eugenol in the same conditions and with inoculated fruits that had not been treated."}, "[2]": {"system": "strain of Penicillium digitatum resistant to imazalil", "assay": "Valencia oranges inoculated with Penicillium digitatum resistant to imazalil", "type": "in vivo", "details": "52° C., 2 minutes", "protocol": "Valencia oranges inoculated with a strain of Penicillium digitatum resistant to imazalil were treated at 52° C. and were in contact for 2 minutes with: • 300 ppm imazalil; • 3,000 ppm potassium phosphite • the two products mixed in proportions of 300 ppm imazalil and 3,000 ppm potassium phosphite."}, "[3]": {"system": "P. expansum", "assay": "Natural P. expansum infections in organic Elstar apples", "type": "in vivo", "from_the_text": "2—In vivo Study of the Activity of Phosphonic Acid (Kphos) on P. expansum Infections in Apples"}, "[4]": {"system": "P. expansum spores", "from_the_text": "1—In vitro Study of the Activity of Phosphonic Acid on P. expansum"}, "[5]": {"system": "P. Digitatum", "assay": "Navel oranges damaged and inoculated with P. digitatum, PA with Bioxeda and thermotherapy", "type": "in vivo", "details": "18 days, 48° C. 2 min", "protocol": "3—Efficacy of PA and Thermotherapy on P. digitatum Infections in Oranges\nIn this experiment, the oranges were damaged then inoculated with P. Digitatum (500,000 sp/mL) and treated 15 hours later; they were stored at 5° C."}, "[6]": {"system": "P. Digitatum", "assay": "Natural P. digitatum infections in Navel oranges, comparison with three fungicides", "type": "in vivo", "details": "Thermotherapy + phosphonic acid 2,000 ppm; SPC 3 days at ambient temperature", "from_the_text": "4—Efficacy of PA on P. digitatum Infections in Oranges. Comparison with a Mixture of Three Fungicides. All Treatments Were Combined with Thermotherapy"}, "[7]": {"system": "P. Digitatum", "protocol": "5—Efficacy of PA on Natural P. digitatum Infections in Oranges Combined with Thermotherapy\n(§1) A new experiment which took place under conditions very similar to those in real life was carried out: natural infections, storage in cold conditions, simulation of storage periods (SPC)."}, "[8]": {"system": "oranges", "details": "PA up to 4,000 ppm, with thermotherapy", "protocol": "as §1"}, "[9]": {"details": "3,000 ppm potassium phosphite, tests 1-4"}}, "note": "Where “and” joins values, the source holds several entries; their conditions need not be identical. Equal values may be shown once. Read-outs that look alike come from different tables or passages of the source."}
{"compound": "C=CCc1ccc(O)c(OC)c1", "note": "[eugenol, reference compound]", "values": [{"measurement": "percentages of decayed fruit", "setting": "[1]; eugenol 1,100 ppm, 2 minutes at 38° C., kept at 7° C., after 9 days", "result": 12, "unit": "%"}, {"measurement": "percentages of decayed fruit", "setting": "[1]; eugenol 1,100 ppm, 2 minutes at 38° C., kept at 7° C., after 18 days", "result": 73, "unit": "%"}, {"measurement": "percentages of decayed fruit", "setting": "[1]; eugenol 1,100 ppm, 2 minutes at 48° C., kept at 7° C., after 9 days", "result": 4, "unit": "%"}, {"measurement": "percentages of decayed fruit", "setting": "[1]; eugenol 1,100 ppm, 2 minutes at 48° C., kept at 7° C., after 18 days", "result": 60, "unit": "%"}]}
{"compound": "potassium phosphite", "values": [{"measurement": "percentages of decayed fruit", "setting": "[1]; potassium phosphite, 38° C., after 9 days", "result": 14, "unit": "%"}, {"measurement": "percentages of decayed fruit", "setting": "[1]; potassium phosphite, 38° C., after 18 days", "result": 76, "unit": "%"}, {"measurement": "percentages of decayed fruit", "setting": "[1]; potassium phosphite, 48° C., after 9 days", "result": 3, "unit": "%"}, {"measurement": "percentages of decayed fruit", "setting": "[1]; potassium phosphite, 48° C., after 18 days", "result": 44, "unit": "%"}, {"measurement": "Average % of decayed fruit", "setting": "[2]; 3,000 ppm potassium phosphite", "result": 42.5, "unit": "%"}, {"measurement": "% of decayed fruit", "setting": "[2]; [9]", "result": "50% and 60% and 30%"}, {"measurement": "Number of fruit decayed", "setting": "[2]; [9]", "result": "5 and 6 and 3"}, {"measurement": "Number of fruit unaffected", "setting": "[2]; [9]", "result": "5 and 4 and 7"}]}
{"compound": "Cc1cc(C)nc(Nc2ccccc2)n1", "note": "[Pyrimethanil]", "values": [{"measurement": "% apples with symptoms", "setting": "[3]; 250 ppm, 2001-2002, 90 days", "result": 4.1, "unit": "%"}, {"measurement": "% apples with symptoms", "setting": "[3]; 250 ppm, 2001-2002, 180 days", "result": 16.2, "unit": "%"}, {"measurement": "% apples with symptoms", "setting": "[3]; 250 ppm, 2002-2003, 90 days", "result": 4.0, "unit": "%"}, {"measurement": "% apples with symptoms", "setting": "[3]; 250 ppm, 2002-2003, 180 days", "result": 19.0, "unit": "%"}, {"measurement": "% apples with symptoms", "setting": "[3]; 500 ppm, 2001-2002, 90 days", "result": 3.2, "unit": "%"}, {"measurement": "% apples with symptoms", "setting": "[3]; 500 ppm, 2001-2002, 180 days", "result": 21.3, "unit": "%"}, {"measurement": "% apples with symptoms", "setting": "[3]; 500 ppm, 2002-2003, 90 days", "result": 0.0, "unit": "%"}, {"measurement": "% apples with symptoms", "setting": "[3]; 500 ppm, 2002-2003, 180 days", "result": 14.0, "unit": "%"}]}
{"compound": "N#Cc1c[nH]cc1-c1cccc2c1OC(F)(F)O2", "note": "[Fluidoxonil]", "values": [{"measurement": "% apples with symptoms", "setting": "[3]; 200 ppm, 2001-2002, 90 days", "result": 1.1, "unit": "%"}, {"measurement": "% apples with symptoms", "setting": "[3]; 200 ppm, 2001-2002, 180 days", "result": 4.9, "unit": "%"}, {"measurement": "% apples with symptoms", "setting": "[3]; 200 ppm, 2002-2003, 90 days", "result": 4.0, "unit": "%"}, {"measurement": "% apples with symptoms", "setting": "[3]; 200 ppm, 2002-2003, 180 days", "result": 7.0, "unit": "%"}]}
{"compound": "O=[PH](O)O", "note": "[PA, Phosphonic acid]", "values": [{"measurement": "Germinated spores", "setting": "[4]; 1,000 ppm (Kphos), 22° C., 24 hours", "result": 27}, {"measurement": "Germinated spores", "setting": "[4]; 1,000 ppm (Kphos), 22° C., 48 hours", "result": 34}, {"measurement": "Germinated spores", "setting": "[4]; 1,000 ppm (Kphos), 50° 2 min, 24 hours", "result": 0}, {"measurement": "Germinated spores", "setting": "[4]; 1,000 ppm (Kphos), 50° 2 min, 48 hours", "result": 21}, {"measurement": "Germinated spores", "setting": "[4]; 4,000 ppm (Kphos), 22° C., 24 hours", "result": 11}, {"measurement": "Germinated spores", "setting": "[4]; 4,000 ppm (Kphos), 22° C., 48 hours", "result": 11}, {"measurement": "Germinated spores", "setting": "[4]; 4,000 ppm (Kphos), 50° 2 min, 24 hours", "result": 0}, {"measurement": "Germinated spores", "setting": "[4]; 4,000 ppm (Kphos), 50° 2 min, 48 hours", "result": 0}, {"measurement": "activity of PA", "setting": "[4]; ambient temperature, even at 4,000 ppm", "result": "partial"}, {"measurement": "% apples with symptoms", "setting": "[3]; 1,000 ppm - 50° C. 2 min, 2001-2002, 90 days", "result": 0.0, "unit": "%"}, {"measurement": "% apples with symptoms", "setting": "[3]; 1,000 ppm - 50° C. 2 min, 2001-2002, 180 days", "result": 4.7, "unit": "%"}, {"measurement": "% apples with symptoms", "setting": "[3]; 1,000 ppm - 50° C. 2 min, 2002-2003, 90 days", "result": 0.0, "unit": "%"}, {"measurement": "% apples with symptoms", "setting": "[3]; 1,000 ppm - 50° C. 2 min, 2002-2003, 180 days", "result": 6.3, "unit": "%"}, {"measurement": "% apples with symptoms", "setting": "[3]; 1,000 ppm, 2001-2002, 90 days after treatment, 2° C.", "result": 3.1, "unit": "%"}, {"measurement": "% apples with symptoms", "setting": "[3]; 1,000 ppm, 2001-2002, 180 days after treatment, 2° C.", "result": 13.1, "unit": "%"}, {"measurement": "% apples with symptoms", "setting": "[3]; 1,000 ppm, 2002-2003, 90 days after treatment, 2° C.", "result": 4.9, "unit": "%"}, {"measurement": "% apples with symptoms", "setting": "[3]; 1,000 ppm, 2002-2003, 180 days after treatment, 2° C.", "result": 11.1, "unit": "%"}, {"measurement": "activity in vivo", "setting": "[3]; PA at ambient temperature on P. expansum in apples", "result": "~0"}, {"measurement": "rate of decay, times lower in the presence of PA", "setting": "[5]; Bioxeda + PA versus Bioxeda", "result": 2.3, "unit": "times"}, {"measurement": "Oranges with symptoms", "setting": "[5]; eugenol 1.8 g/L + PA 1,000 ppm (Kphos), stored at 5° C.", "result": 26, "unit": "%"}, {"measurement": "Oranges with symptoms 12 D 5 0C = 3 D SPC (1)", "setting": "[6]", "result": 0.5}, {"measurement": "% oranges with symptoms 15 D 5° C. + 5 D SPC", "setting": "[7]; 2,000 ppm, no thermotherapy", "result": 6.0, "unit": "%"}, {"measurement": "efficacy", "setting": "[7]; 4,000 ppm combined with thermotherapy", "result": 73.5, "unit": "%"}, {"measurement": "% oranges with symptoms 15 D 5° C. + 5 D SPC", "setting": "[7]; 4,000 ppm, no thermotherapy", "result": 5.1, "unit": "%"}, {"measurement": "% oranges with symptoms 15 D 5° C. + 5 D SPC", "setting": "[7]; Thermotherapy (50° C. 3 min) + 2,000 ppm", "result": 4.0, "unit": "%"}, {"measurement": "% oranges with symptoms 15 D 5° C. + 5 D SPC", "setting": "[7]; Thermotherapy (50° C. 3 min) + 4,000 ppm", "result": 2.7, "unit": "%"}, {"measurement": "phytotoxicity", "setting": "[8]", "result": "No phytotoxicity"}]}
{"compound": "C=CCOC(Cn1ccnc1)c1ccc(Cl)cc1Cl", "note": "(stereo not shown) [Imazalil, imazalil, reference compound]", "values": [{"measurement": "Average % of decayed fruit", "setting": "[2]; 300 ppm imazalil", "result": 42.5, "unit": "%"}]}
